Measurements taken from article PMC13382108 (Frontiers in Pharmacology, 2026).

Test: In vivo pharmacokinetic study in rats (plasma, HPLC)
Conditions: SD rats, intragastric, FLU 40 mg/kg alone, as TF-1 (+48 mg/kg TDS) or TF-2 (+96 mg/kg TDS)
Protocol: A total of 25 healthy male SD rats were used. After adaptive feeding, rats were randomly divided into five groups (n = 5). […] Blood samples were placed in heparin-pretreated centrifuge tubes. Whole blood was centrifuged at 6,000 rpm for 3 min to separate plasma, which was stored at −20 °C or −80 °C for subsequent analysis. […] The mean plasma concentration-time curves were plotted. The non-compartmental model in DAS 2.1.1 software was used to calculate major pharmacokinetic parameters. The pharmacokinetic interactions after combined medication were evaluated by comparing parameters between monotherapy groups and TF combination groups.

CNCCC(Oc1ccc(C(F)(F)F)cc1)c1ccccc1 (stereo not shown) [FLU, Fluoxetine]
t1/2z of FLU: 6.563 h
